Assay [1] relates to Plasmodium berghei. In words: Inhibition of cytochrome oxidase in intraerythrocytic trophozoite of Plasmodium berghei infected CF1 mice (Mus musculus) at 100 mg/kg intravenous dose. The assay is classed as functional, organism-based. On the set-up: dose 100 mg/kg.
In assay [2] the test system is Plasmodium berghei. Put plainly: Inhibition of Plasmodium berghei trophozoite cytochrome oxidase at 100 nM after 30 min by osmium black staining.
The subject of assay [3] is Plasmodium berghei. Put plainly: Inhibition of Plasmodium berghei trophozoite cytochrome oxidase after 30 min by osmium black staining.
For assay [4], the system named is Plasmodium berghei. Put plainly: Inhibition of Plasmodium berghei trophozoite cytochrome oxidase at 1 mM after 30 min by osmium black staining.

The source made the active and inactive calls. No cut-off for these calls is given here.

For the compound `C[C@H]1[C@H](OC(=O)CCC(=O)O)O[C@@H]2O[C@@]3(C)CC[C@H]4[C@H](C)CC[C@@H]1[C@@]24OO3`, the outcome with Plasmodium berghei [1] and in the assay with Plasmodium berghei [4] was Active. Also, the outcome with Plasmodium berghei [2] was inactive. Besides, the Activity result with Plasmodium berghei [3] is “Dose-dependent effect”.

These data come from ChEMBL document CHEMBL1148999, “Antimalarial agents, 2. Artesunate, an inhibitor of cytochrome oxidase activity in Plasmodium berghei” (J Nat Prod, 1986).
